From patent US20060069104A1, “Neurotrophic factor production accelerator” (priority 2002, published 2006) come the findings set out here.

Each structure is given as a SMILES string.

This assay relates to GDNF mRNA in cultured astroglia. Kind of assay: Quantification of GDNF mRNA by RT-PCR in cultured astroglia. It counts as cell-based, Wistar rat. The following applies: cultured rat astroglia. How it is done: Astroglia was prepared from the brain of a 1 to 2-day-old Wistar rat. It was inoculated to a 75 cm^2 culture flask, and incubated in Eagle's minimum essential medium supplemented with 10% fetal bovine serum for 10 to 14 days. Then, it was shaken overnight at 250 rpm, and microglia and oligodendroglia on the astroglia monolayer were removed. Astroglia was dispersed in 0.25% trypsin (1:400, Invitrogen), and inoculated to a 6-well plate. It was further incubated for 7 to 10 days, and confluent cells were used for the experiment.
The cultured astroglia prepared by the above-mentioned method was incubated in serum-free Eagle's minimum essential medium for 48 hours. The total RNA was prepared by AGPC (Acid Guanidinium-Phenol-Chloroform) method (Chomczynski P., and Sacchi N., Anal. Biochem. 162, 156-159 (1987)). […] The fluorescence intensity of the PCR product was imaged by Fluoro Imager (Molecular Dynamics), and fluorescence bands were quantified by NIH Image. The amount of the PCR product of the eurotrophic factor was standardized using the amount of the β-actin PCR product of cDNA, and the amount of relative mRNA was determined. The activity of N-(4-acetyl-1-piperazinyl)-p-fluorobenzamide monohydrate (hereinafter to be also referred to as a test drug.) on neurotrophic factor production was evaluated by a Tukey-Kramer assay. […]

As for `CC(=O)N1CCN(NC(=O)c2ccc(F)cc2)CC1.O` [test drug, N-(4-acetyl-1-piperazinyl)-p-fluorobenzamide monohydrate], the “amount of GDNF mRNA (relative mRNA amount standardized using the amount of the β-actin PCR product)” value (serum-free medium, from 3 hours after the treatment with the test drug, RT-PCR, Tukey-Kramer) is reported as “significant increase”. Further, the “time of peak of GDNF mRNA amount after treatment” value (time-course after treatment with the test drug (FIG. 1)) is 6 h.
